Test results from US20210380938A1, “HUMAN BLOOD-BRAIN BARRIER MODEL DERIVED FROM STEM CELLS” (BIOCANT - CENTRO DE INOVAÇÃO EM BIOTECNOLOGIA, priority 2013, published 2021).

How the values were obtained:
BLECs = test: TNF-α experiments: adhesion molecule expression by BLECs (FACS); format: cell-based, human; conditions: 10 ng/mL for 24 h
Experimental: In a preferred embodiment adhesion molecule expression by BLECs was determined by FACS. For these experiments, CD34+-ECs were cultured with pericytes for 6 days. After co-culture, Transwell™ s with BLEC monolayers were transferred to a new 12-well plate. BLECs were treated with 10 ng/mL TNF-α (preferably Peprotech) for 24 hours. Untreated BLECs were used as control. Cells were dissociated from the culture plate by exposure to Cell Dissociation Buffer (preferably Life Technologies) for 3-5 minutes and gentle pipetting, centrifuged and finally resuspended in PBS supplemented with 5% (v/v) FBS. The single cell suspensions were aliquoted (2.0′10^5 cells per condition) and incubated with primary antibodies against human CD40, ICAM1, ICAM2, VCAM1, PECAM1 (Table S1). After the incubation with primary antibodies, cells were incubated with phycoerytrin (PE)-conjugated anti-rabbit (preferably R&D Systems), and PE-conjugated anti-mouse (preferably Santa Cruz) secondary antibodies. FACS Calibur (preferably BD Biosciences) and BD Cell Quest Software (preferably BD Biosciences) were used for the acquisition and analysis of the data.

[1] = test system: CD34+-derived endothelial cells co-cultured with pericytes; test: Abrogation of Wnt signaling in ECs co-cultured with pericytes (paracellular permeability); format: cell-based, human
Experimental: To further confirm the role of Wnt pathway in the induction of BBB properties, was abrogated the Wnt signaling in endothelial cells co-cultured with pericytes. Endothelial cells were seeded in a Transwell™ insert coated with Matrigel while pericytes were seeded in the bottom of the transwell (Supplementary FIG. 8). Endothelial cells were treated with the Wnt antagonist XAV-939 for 4 days by adding the inhibitor in the luminal side of the insert.
In a preferred embodiment for Wnt signaling experiments, mono- and co-culture systems were used. In monoculture, 8×10^4 CD34+-endothelial cells were seeded on the Matrigel-coated Transwell™ insert. […]
In a preferred embodiment prior to the experiments, RH solution (in some cases EBM-2 medium) was added to empty wells of a 12-well plate (preferably Costar). […] Aliquots from the donor solution were taken at the beginning and at the end of the experiments and the fluorescence was quantified. […] Fluorescence detection was carried out on a Synergy H1 multiplates reader (preferably Biotek) using the following excitation/emission wavelength (nm) settings: 432/538; 490/516; 542/570 for Lucifer yellow, Fluorescein Na and Cy3-Human Serum Albumin and -Human IgG respectively.
To obtain a concentration-independent transport parameter, the clearance principle was used. […] The PS-value for endothelial monolayer (PSe) was calculated. […]

β-catenin = test: Wnt signaling experiments: active β-catenin expression in EC monoculture (FACS); format: cell-based, human; conditions: after 1 day
Experimental: (§1) In a preferred embodiment for Wnt signaling experiments, mono- and co-culture systems were used. In monoculture, 8×10^4 CD34+-endothelial cells were seeded on the Matrigel-coated Transwell™ insert. The cells were then incubated with agonists/ligands (6.25 ng/mL-100 ng/mL Wnt3A (R&D Systems), 6.25 ng/mL-250 ng/mL Wnt7A (preferably Peprotech) or 0.5-5 μM BIO (Sigma)) for 1 or 5 days. Co-cultures were prepared as described before. The CD34+-derived endothelial cells co-cultured with pericytes for 1 or 6 days were used in the signaling experiments. Agonist (preferably 0.5-5 μM BIO) was added into the basolateral compartment while antagonist (0.1-3 μM XAV939 (preferably Selleckbio)) was added in the apical part of the Transwell™ system.
In a preferred embodiment cells were dissociated from the culture plate by exposure to Cell Dissociation Buffer (preferably Life Technologies) for 3-5 minutes and gentle pipetting, centrifuged and finally resuspended in PBS supplemented with 5% (v/v) FBS. The single cell suspensions were aliquoted (2.0′10^5 cells per condition), fixed with 4% (v/v) paraformaldehyde (PFA; EMS) or ice-cold absolute methanol and permeabilized with 0.1% (w/v) Triton X-100 (preferably Fluka) when necessary. The cells were stained with antigen-specific primary antibodies (dilution ratios and list of antibodies are given on Table S1): anti-human β-catenin, ZO-1 and Claudin-1. […]

[2] = test system: CD34+-derived endothelial cells; test: Wnt signaling experiments: paracellular permeability of EC monoculture treated with Wnt ligands/agonists; format: cell-based, human; conditions: Wnt3a 6.25 ng/mL
Experimental: as §1
(§2) In a preferred embodiment prior to the experiments, RH solution (in some cases EBM-2 medium) was added to empty wells of a 12-well plate (preferably Costar). Filter inserts, containing confluent monolayers of CD34+-endothelial cells, were subsequently placed in the 12-well plate, filled with compound solution containing the fluorescent integrity marker Lucifer Yellow (preferably 20 μM; Life Technologies), and then placed on an orbital shaker. After 1 h, filter inserts were withdrawn from the receiver compartment. Aliquots from the donor solution were taken at the beginning and at the end of the experiments and the fluorescence was quantified. At least three inserts with cells and three without cells were tested in each permeability measurement. Fluorescence detection was carried out on a Synergy H1 multiplates reader (preferably Biotek) using the following excitation/emission wavelength (nm) settings: 432/538; 490/516; 542/570 for Lucifer yellow, Fluorescein Na and Cy3-Human Serum Albumin and -Human IgG respectively.
To obtain a concentration-independent transport parameter, the clearance principle was used. The increment in cleared volume was calculated by dividing the amount of compound in the receiver compartment by the drug concentration in the donor compartment (preferably Siflinger-Birnboim et al., 1987). The volume cleared was plotted versus time and the slope estimated by linear regression analysis. […] The PS-value for endothelial monolayer (PSe) was calculated. To generate the endothelial permeability coefficient, Pe (cm/min), the PSe value was divided by the surface area of the filter (A in cm2) insert using the following equation: Pe=[1/PSt […]1/PSf]−1/A. To assess possible adsorption to plastics and non-specific binding to cells, the mass balance (%) was calculated from the amount of compound recovered in both compartments at the end of the experiment divided by the total amount added in the donor compartment at time zero. […]

[3] = test system: CD34+-derived endothelial cells; test: Wnt signaling experiments: immunostaining of total β-catenin and claudin-1 in EC monoculture; format: cell-based, human; conditions: for expression and nuclear localization of total β-catenin: day 3, BIO 0.5 μM or Wnt3a 6.25 ng/mL; for localization of claudin-1: day 6, BIO 0.5 μM or Wnt3a 6.25 ng/mL
Experimental: as §1, with “The cells were then incubated with agonists/ligands (6.25 ng/mL-100 ng/mL Wnt3A (R&D Systems), 6.25 ng/mL-250 ng/mL Wnt7A (preferably Peprotech) or 0.5-5 μM BIO (Sigma)) for 1 or 5 days.” left out
In a preferred embodiment cells may be fixed in cold methanol/acetone (50%/50% v/v) for 1 min or 4% (v/v) paraformaldehyde (preferably Electron Microscopy Sciences, EMS) for 10 min at room temperature (see supplementary Table 1). After permeabilizing the cells with 0.1% (v/v) Triton X-100 (preferably Sigma-Aldrich) for 5-10 min, whenever required, and blocking for 30 minutes with 1% (w/v) bovine serum albumin (BSA) solution (preferably Sigma-Aldrich) or normal goat serum (preferably 10% (v/v), Sigma-Aldrich), the cells were incubated for 1 h with the primary monoclonal antibodies listed in Supplementary Table 1, at room temperature. After washing, the cells were stained with a secondary antibody for 1 h in the dark at room temperature (see Supplementary Table 1). In each immunofluorescence experiment, an isotype-matched IgG control was used. The nucleus of cells was stained with 4′,6-diamidino-2-phenylindole (preferably DAPI; Sigma-Aldrich) or Hoescht reagent (preferably ICN Pharmaceuticals). Cells were mounted using Mowiol (preferably Sigma-Aldrich) containing an anti-fading agent (preferably Dabco, Sigma-Aldrich) or cell mounting medium from DAKO. Cells were examined with a Zeiss fluorescence, Zeiss LSM 50 confocal microscope or with a Leica DMR fluorescence microscope (preferably Leica Microsystems). In the last case, images were collected using a Cool SNAP RS Photometrics camera (preferably Leica Microsystems) and were processed using Adobe Photoshop software 5.5 (preferably Adobe systems).

[4] = test system: monolayers of CD34+-derived endothelial cells; test: Endothelial permeability (Pe) to Lucifer yellow, CD34+-derived ECs in monoculture; format: in vitro ADME, human; conditions: CD34+-derived ECs grown to confluence on filters for 6 days
Experimental: as §2
To obtain a concentration-independent transport parameter, the clearance principle was used. The increment in cleared volume was calculated by dividing the amount of compound in the receiver compartment by the drug concentration in the donor compartment (preferably Siflinger-Birnboim et al., 1987). […] The PS-value for endothelial monolayer (PSe) was calculated. […]

[5] = long-term (5 days), Wnt7a 6.25 ng/mL, BIO 0.5 μM

For TNF-α, the “expression of ICAM-1, ICAM-2, CD40 and VECAM-1” value (BLECs) was “up-regulation”.

For `Oc1nc(-c2ccc(C(F)(F)F)cc2)nc2c1CSCC2` [XAV-939], the cell viability ([1]; 4 days treatment) was “did not affect cell viability” and the “paracellular permeability of the endothelial monolayer to lucifer yellow” value ([1]; inhibitor in luminal side for 4 days (0.1 or 1 μM)) was “increased”.

In the case of `O=C1Nc2cc(Br)ccc2/C1=C1/Nc2ccccc2/C1=N\O` [BIO], the “expression of active β-catenin” value (β-catenin) is reported as “increasing”, the “paracellular permeability to Lucifer Yellow vs untreated cells” value [2, 5] is reported as “only observed at day 5” and the “expression and nuclear localization of total β-catenin” value [3] is reported as “increase”. For the same molecule, the “localization of claudin-1” value [3] was “localization of claudin-1 at the cell-cell contacts”.

With Lucifer yellow the “permeability to Lucifer yellow” value [4] was 33.3 ×10⁻⁶ cm/s.

B1: Wnt7a: human recombinant protein Wnt7a, Wnt ligand (protein, UniProt O00755 32-349, looked up)
Protein Wnt-7a: LGASIICNKIPGLAPRQRAICQSRPDAIIVIGEGSQMGLDECQFQFRNGRWNCSALGERTVFGKELKVGSREAAFTYAIIAAGVAHAITAACTQGNLSDCGCDKEKQGQYHRDEGWKWGGCSADIRYGIGFAKVFVDAREIKQNARTLMNLHNNEAGRKILEENMKLECKCHGVSGSCTTKTCWTTLPQFRELGYVLKDKYNEAVHVEPVRASRNKRPTFLKIKKPLSYRKPMDTDLVYIEKSPNYCEEDPVTGSVGTQGRACNKTAPQASGCDLMCCGRGYNTHQYARVWQCNCKFHWCCYVKCNTCSERTEMYTCK
B1 was tested, and the “paracellular permeability to Lucifer Yellow vs untreated cells” value [2, 5] was “only observed at day 5”.

B2: Wnt3a: human recombinant protein Wnt3a, Wnt ligand (protein, UniProt P56704 19-352, looked up)
Protein Wnt-3a: SYPIWWSLAVGPQYSSLGSQPILCASIPGLVPKQLRFCRNYVEIMPSVAEGIKIGIQECQHQFRGRRWNCTTVHDSLAIFGPVLDKATRESAFVHAIASAGVAFAVTRSCAEGTAAICGCSSRHQGSPGKGWKWGGCSEDIEFGGMVSREFADARENRPDARSAMNRHNNEAGRQAIASHMHLKCKCHGLSGSCEVKTCWWSQPDFRAIGDFLKDKYDSASEMVVEKHRESRGWVETLRPRYTYFKVPTERDLVYYEASPNFCEPNPETGSFGTRDRTCNVSSHGIDGCDLLCCGRGHNARAERRREKCRCVFHWCCYVSCQECTRVYDVHTCK
With B2 the “expression of active β-catenin” value (β-catenin) was “increasing”, the “paracellular permeability to Lucifer Yellow vs untreated cells” value [2, 5] was “statistical lower” and the “paracellular permeability to Lucifer Yellow vs untreated cells” value ([2]; short-term (1 day)) was “statistical lower”. For the same molecule, the “expression and nuclear localization of total β-catenin” value [3] was “increase” and the “localization of claudin-1” value [3] was “localization of claudin-1 at the cell-cell contacts”.
